Experimental findings from US20240417773A1 (priority 2022, published 2024) are described below.

In test [1] the test system is spore strips produced by Xinhua Mesa®Strip. The note with it: 50° C., 1.74 mg/L; for Observation result: excitation 365 nm.
Experimental: This embodiment selects six spore strips produced by Xinhua Mesa®Strip, which are divided into three groups and each group has two strips. […] A treatment for 0 sec at 50° C. means that no treatment is performed, and is a control group; a treatment for 20 sec at 50° C. simulates a condition of incomplete sterilization; and treatment for 60 sec at 50° C. simulates a condition of successful sterilization where all the spores are supposed to be skilled theoretically. An exposure position of the indicator is located at a cold spot of a sterilization device. A sample subjected to the sterilization treatment is transferred onto a bechtop. Bacteria strips included in the biological indicators in the three groups after the sterilization treatment are taken out by means of sterilized tweezers, put in a sterile centrifuge tube, added with an appropriate amount of sterile recovered liquid (0.1% polysorbate 80, and 0.03 M phosphate buffer liquid with pH being 7.2), fully oscillated and crushed. Afterwards, the centrifuge tube is put in an ice-bath for cooling.
(§1) One drop of the liquid medium (30 g/L agar and 15 g/L tryptic soy broth) subjected to high-temperature sterilization is dropwise added onto an object slide, after this drop of the liquid medium is solidified, one drop of the 4-MUG with a concentration being 210 mg/L is dropwise added onto the solid medium, and a moment later, the 4-MUG fully infiltrates into the solid medium.
(§2) One drop of the spore suspension (including the thermal-damaged spores) is dropwise added onto the solid medium.
The number and sizes of fluorescent spots are observed under the observation system. The observation system is composed of four parts: 1) a stereoscopic microscope (a brand model may be: Nikon SMZ800); 2) a time gating camera (a brand model may be: Photonics Research Systems, Salford, UK) mounted on the above stereoscopic microscope; 3) a xenon flash lamp (a brand model may be: PerkinElmer, Waltham, MA) forming a 45° angle relative to a sample; and 4) a temperature-controlled microscope object slide stand (a brand model may be: Thermal).
Parameters set for the observation system are as follows: the xenon flash lamp has an excitation wavelength of 365 nm and an excitation slit width of 10 nm. Observed by the stereoscopic microscope, an emission wavelength is 544 nm, and an emission slit is 10 nm.
Test [2] has as its system spores of the Bacillus atrophaeus. The note with it: 50° C., 1.74 mg/L; for Observation result: excitation 365 nm.
Experimental: A bacterial carrier on each indicator includes about 106 spores of the Bacillus atrophaeus. The six indicators are divided into three groups, each of which has two indicators. […] A treatment for 0 sec at 50° C. means that no treatment is performed, and is a control group; a treatment for 20 sec at 50° C. simulates a condition of incomplete sterilization; and treatment for 60 sec at 50° C. simulates a condition of successful sterilization where all the spores are supposed to be skilled theoretically. An exposure position of the indicator is located at a cold spot of a sterilization device. A sample subjected to the sterilization treatment is transferred onto a bechtop. Bacteria strips included in the biological indicators in the three groups after the sterilization treatment are taken out by means of sterilized tweezers, put in a sterile centrifuge tube, added with an appropriate quantity of sterile recovered liquid (0.1% polysorbate 80, and 0.03 M phosphate buffer liquid with pH being 7.2), fully oscillated and crushed. Afterwards, the centrifuge tube is put in an ice-bath for cooling.
Then, a sample in the centrifuge tube is subjected to centrifugation (a centrifugal force being 2000×g, a temperature being 4° C. and a centrifugation duration being 20 min), an obtained supernatant passes through a 10 μm millipore filter (a spore diameter is 1 μm to 2 μm, so in order to make the spores pass through the filter and the bacteria strip slags are blocked, a filter of 2 μm or above is needed), so as to obtain filtrate.
An appropriate amount of sterile recovered liquid is added into filtered slags (a main component is a crushed bacteria strip fiber) obtained after the above centrifugal filtration, after oscillating and shaking well, the above centrifugal filtration process is repeated, filtrate including thermal-damaged spores is further recovered, repetition is performed for 2 to 3 times like this, and the filtrate obtained by each centrifugal filtration is gathered as the spore suspension.
as §1, §2
The number and sizes of fluorescent spots are observed under the observation system. […]

Where two headings read alike, the source gives them in different places.

With `OO` [hydrogen peroxide], the Conclusion entry in test [1] (20 sec) was “Incomplete”; in test [1] (60 sec), “Complete”; in test [2] (20 sec), “Incomplete”; in test [2] (60 sec), “Complete”. The Observation result is given as “A certain quantity of scattered” in test [1] (20 sec), “No fluorescent spot” in test [1] (60 sec), “A certain quantity of scattered” in test [2] (20 sec) and “No fluorescent spot” in test [2] (60 sec).
